Measured values: US20060153912A1 (BASF Aktiengesellschaft, priority 2002, published 2006)

Tests used:
[1] = Color stability of 50% strength water/methanol solutions stirred at reflux (65° C.) in air, Gardner/Hazen color number
[2] = Color stability of 10% strength solutions in water/methanol (1:1), 7 h at 65° C., with and without stabilizer; assay type: physicochemical; conditions: 10% strength solution in water/methanol (1:1), no additive
Procedure: The experiments took place under the following conditions: 10% strength solutions in water/methanol (1:1)—7 h at 65° C.

[3] = 50% choline ascorbate solution, additive 1% by weight, reaction time 4 h
[4] = 50% solution in 1:1 water/methanol, without additive, reaction time 0 h
[5] = 50% solution in 1:1 water/methanol, without additive, reaction time 1 h
[6] = 50% solution in 1:1 water/methanol, without additive, reaction time 7 h
[7] = 50% choline ascorbate solution, additive 1% by weight, reaction time 3 h
[8] = 50% choline ascorbate solution, additive 1% by weight, reaction time 5 h

## O=C(O)CCCC[C@@H](S)CCS (racemic) [Dihydrolipoic acid]
[1]; [3]
  Color number Gardner: 0.2
  Color number Hazen: 53

## C[N+](C)(C)CCO.O=C([O-])C(O)C(O)C(=O)O (stereo not drawn) [Choline bitartrate]
[2]
  Color number Gardner: 0.1
  Color number Hazen: 32
[1]; [4]
  Color number Gardner: 0.1
  Color number Hazen: 27
[1]; [5]
  Color number Gardner: 0.1
  Color number Hazen: 30
[1]; [6]
  Color number Gardner: 0.1
  Color number Hazen: 28

## C[N+](C)(C)CCO.[Cl-] [Choline chloride]
[2]
  Color number Gardner: 0.1
  Color number Hazen: 35

## N[C@@H](CS)C(=O)O [Cysteine]
[1]; [3]
  Color number Gardner: 0.1
  Color number Hazen: 35

## N[C@@H](CCC(=O)N[C@@H](CS)C(=O)NCC(=O)O)C(=O)O [Glutathione]
[1]; [3]
  Color number Gardner: 0.4
  Color number Hazen: 122

## O=C1O[C@H]([C@@H](O)CO)C(O)=C1O [L-(+)-Ascorbic acid]
[2]
  Color number Gardner: 0.1
  Color number Hazen: 27
[1]; [4]
  Color number Gardner: 0.1
  Color number Hazen: 27
[1]; [5]
  Color number Gardner: 0.1
  Color number Hazen: 31
[1]; [6]
  Color number Gardner: 0.1
  Color number Hazen: 29

## CC(=O)N[C@@H](CS)C(=O)O [N-Acetylcysteine]
[1]; [3]
  Color number Gardner: 0.9
  Color number Hazen: 162

## OB(O)c1ccccc1 [Phenylboronic acid]
[1]; [3]
  Color number Gardner: 2.7
  Color number Hazen: 589

## OP(O)O [Phosphorous acid]
[1]; [3]
  Color number Gardner: 0.7
  Color number Hazen: 163

## O=C1O[C@H]([C@@H](O)CO)C([O-])=C1O.[Na+] [Sodium ascorbate]
[2]
  Color number Gardner: 0.1
  Color number Hazen: 31
[1]; [4]
  Color number Gardner: 0.1
  Color number Hazen: 26
[1]; [5]
  Color number Gardner: 0.1
  Color number Hazen: 28
[1]; [6]
  Color number Gardner: 0.1
  Color number Hazen: 31

## O=c1[nH]c(=O)c2[nH]c(=O)[nH]c2[nH]1 [Uric acid]
[1]; [7]
  Color number Gardner: 0.9
  Color number Hazen: 162
[1]; [8]
  Color number Gardner: 1.4
  Color number Hazen: 237
